Entries after “also recorded” stand apart in the source; their conditions may differ.
Tested on: ear margin fibroblasts (GEFs) of goat
Experiment: induction of transdifferentiation of fibroblasts into mammary epithelial cells with induction medium, cell morphology
Assay type: cell-based
Conditions: for transdifferentiation of fibroblasts into mammary epithelial cells with the inhibitor alone: 8 d, 10 μM SB431542, 5 μM SB525334, 1 μM LDN193189 induction medium alone
Description: 1. The ear margin fibroblasts (GEFs) of goat were isolated and cultured by a tissue adherence method to provide cell materials for subsequent induction.
2. The fibroblasts were inoculated into a 60 mm cell culture dish at a density of 5×10^5, and after culturing for 8 h to 24 h in the high-glucose DMEM+10% FBS (volume percentage), the induction medium BFRTV was replaced, and then cultured at 37° C. for 8 d in a 5% CO2 incubator, where the medium was changed every two days.
3. When cultured to the 8th day, CiMECs can be subcultured and inoculated onto a plate pretreated with Matrix (a volume ratio of Matrix to gelatin was 1:50), and then cultured in a mammary epithelial cell medium, when the cell confluence reached about 90%, the cells were subcultured or frozen for subsequent detection.
Taking the ear margin fibroblasts of Guanzhong dairy goat as an experimental object, the concentration of five small molecule compounds currently used was adjusted, and the concentration of BFRTV was adjusted as a whole under the condition that the basal solution remained unchanged.

SMILES | transdifferentiation of fibroblasts into mammary epithelial cells with the inhibitor alone | induction of mammary epithelial cells with Repsox alone (R induction medium) (R induction medium, no other small molecule)
c1ccc2c(-c3cnn4cc(-c5ccc(N6CCNCC6)cc5)cnc34)ccnc2c1 [LDN193189] | the fibroblasts can be induced into mammary epithelial cells; also recorded: could still induce the transdifferentiation of fibroblasts into mammary epithelial cells | –
Cc1cccc(-c2[nH]ncc2-c2ccc3ncccc3n2)n1 [Repsox] | – | mammary epithelial cells (CiMECs) similar to those by BFRTV induction medium were obtained
NC(=O)c1ccc(-c2nc(-c3ccc4c(c3)OCO4)c(-c3ccccn3)[nH]2)cc1 [SB431542] | the fibroblasts can be induced into mammary epithelial cells; also recorded: could still induce the transdifferentiation of fibroblasts into mammary epithelial cells | –
Cc1cccc(-c2[nH]c(C(C)(C)C)nc2-c2ccc3nccnc3c2)n1 [SB525334] | the fibroblasts can be induced into mammary epithelial cells; also recorded: could still induce the transdifferentiation of fibroblasts into mammary epithelial cells | –
